Experimental data taken from patent US8853239B2, “Compounds, pharmaceutical compositions and uses thereof” (Boehringer Ingelheim International GmbH, priority 2011, dated 2014).

Biological target: T1, human GPR119 (Homo sapiens, UniProt Q8TDV5)
T1 construct: expression vector for human GPR119 cDNA (Acc. No. NP_848566); expressed in transfected cells
T1 sequence (Q8TDV5 1-335): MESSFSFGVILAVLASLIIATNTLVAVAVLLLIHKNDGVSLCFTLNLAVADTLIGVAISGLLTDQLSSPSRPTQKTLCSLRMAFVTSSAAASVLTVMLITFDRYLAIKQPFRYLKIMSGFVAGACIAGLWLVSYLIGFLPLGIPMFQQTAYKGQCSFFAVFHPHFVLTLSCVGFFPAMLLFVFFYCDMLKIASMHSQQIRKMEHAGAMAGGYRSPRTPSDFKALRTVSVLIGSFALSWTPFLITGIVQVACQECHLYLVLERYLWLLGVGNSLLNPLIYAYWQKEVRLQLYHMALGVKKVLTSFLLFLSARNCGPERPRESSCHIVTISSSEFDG
Test: AlphaScreen cAMP assay in MIN6 cells stably transfected with human GPR119
Type: cell-based
Settings: Min-6/hGPR119 cells, stimulation of intracellular cAMP, 45 minutes incubation at room temperature
Protocol: The compounds of formula I according to the invention modulate the activity of the G-protein-coupled receptor GPR119. The effect of the compounds on the activation of GPR119 and on the stimulation of intracellular cAMP concentration is determined using the AlphaScreen cAMP Assay Kit (Cat. No. #6760625R) made by PerkinElmer.
MIN6 cells [Miyazaki J et al. Endocrinology. 1990 July; 127(1):126-32] are stably transfected with an expression vector for human GPR119 cDNA (Acc. No. NP_848566). Min-6/hGPR119 cells are cultured in DMEM, 10% FBS, 50 μM β-mercaptoethanol, 0.3 mg/mL Geniticin, 2 mM GlutaMAX at 37° C. 5% CO2. For the assay, the cells are seeded in Optiplates (white, 384-well, 160W-barcoded, TC, sterile with lid, Cat. No. #6007688 (Perkin Elmer); 10000 cells/well; 50 μl). The plates covered with lids are then incubated for 24 hours at 37° C./5% CO2. After the medium is aspirated from the wells completely, 10 μl of the test compound are added, the compounds are diluted using stimulating buffer (140 mM NaCl, 3.6 mM KCl, 0.5 mM NaH2PO4, 0.5 mM MgSO4, 1.5 mM CaCl2, 10 mM Hepes, 5 mM NaHCO3; pH 7.4. 0.5 mM IBMX and 0.1% BSA, the final DMSO concentration is 1%). After 45 minutes incubation at room temperature (approx. 20° C.), the cAMP concentrations are determined using the AlphaScreen cAMP Assay Kit (Cat. No. #6760625R from PerkinElmer).

In order of falling EC50:
1. CC(C)(F)CN1CCC([C@@H]2Cc3cc(C4=CCN(S(C)(=O)=O)CC4)ncc3O2)CC1 [Example 11, (S)-2-[1-(2-Fluoro-2-methyl-propyl)-piperidin-4-yl]-5-(1-methanesulfonyl-1,2,3,6-tetrahydro-pyridin-4-yl)-2,3-dihydro-furo[2,3-c]pyridine]  0.848 µM
2. CC(C)(F)CN1CCC(C2Cc3cc(C4CCN(S(C)(=O)=O)CC4)ncc3O2)CC1 (centres unmarked) [Example 5, 2-[1-(2-Fluoro-2-methyl-propyl)-piperidin-4-yl]-5-(1-methanesulfonyl-piperidin-4-yl)-2,3-dihydro-furo[2,3-c]pyridine]  0.663 µM
3. CC(C)(F)CN1CCC(C2Cc3cc(-c4ccc(S(C)(=O)=O)cc4)ccc3O2)CC1 (centres unmarked) [Example 1, 1-(2-Fluoro-2-methyl-propyl)-4-[5-(4-methanesulfonyl-phenyl)-2,3-dihydro-benzofuran-2-yl]-piperidine]  0.417 µM
4. CC(C)(F)CN1CCC(C2Cc3cc(-c4ccc(CS(C)(=O)=O)cc4)ncc3O2)CC1 (centres unmarked) [Example 4, 2-[1-(2-Fluoro-2-methyl-propyl)-piperidin-4-yl]-5-(4-methanesulfonylmethyl-phenyl)-2,3-dihydro-furo[2,3-c]pyridine]  0.215 µM
5. CC(C)(F)CN1CCC(C2Cc3cc(-c4ccc(CS(C)(=O)=O)cc4F)ncc3O2)CC1 (centres unmarked) [Example 9, 5-(2-Fluoro-4-methanesulfonylmethyl-phenyl)-2-[1-(2-fluoro-2-methyl-propyl)-piperidin-4-yl]-2,3-dihydro-furo[2,3-c]pyridine]  0.1 µM
6. CC(C)(F)CN1CCC([C@H]2Cc3cc(-c4ccc(S(C)(=O)=O)cc4)ncc3O2)CC1 [Example 19, (R)-2-[1-(2-Fluoro-2-methyl-propyl)-piperidin-4-yl]-5-(4-methanesulfonyl-phenyl)-2,3-dihydro-furo[2,3-c]pyridine]  0.084 µM
7. CS(=O)(=O)N1CC=C(c2cc3c(cn2)O[C@H](C2CCN(CC4(C(F)(F)F)CC4)CC2)C3)CC1 [Example 15, (S)-5-(1-Methanesulfonyl-1,2,3,6-tetrahydro-pyridin-4-yl)-2-{1-[(1-trifluoromethyl-cyclopropyl)methyl]-piperidin-4-yl}-2,3-dihydro-furo[2,3-c]pyridine]  0.078 µM
8. CC(C)(F)CN1CCC([C@@]2(C)Cc3cc(-c4ccc(S(C)(=O)=O)cc4)ncc3O2)CC1 [Example 10, (R)-2-[1-(2-Fluoro-2-methyl-propyl)-piperidin-4-yl]-5-(4-methanesulfonyl-phenyl)-2-methyl-2,3-dihydro-furo[2,3-c]pyridine]  0.066 µM
9. CC(C)(F)CN1CCC([C@H]2Cc3cc(C4=CCN(S(C)(=O)=O)CC4)ncc3O2)CC1 [Example 12, (R)-2-[1-(2-Fluoro-2-methyl-propyl)-piperidin-4-yl]-5-(1-methanesulfonyl-1,2,3,6-tetrahydro-pyridin-4-yl)-2,3-dihydro-furo[2,3-c]pyridine]  0.046 µM
10. CC(C)(F)CN1CCC(C2Cc3cc(C4=CCN(S(C)(=O)=O)CC4)ncc3O2)CC1 (centres unmarked) [Example 3, 2-[1-(2-Fluoro-2-methyl-propyl)-piperidin-4-yl]-5-(1-methanesulfonyl-1,2,3,6-tetrahydro-pyridin-4-yl)-2,3-dihydro-furo[2,3-c]pyridine]  0.036 µM
11. CS(=O)(=O)Cc1ccc(-c2cc3c(cn2)OC(C2CCN(CC4(C(F)(F)F)CC4)CC2)C3)cc1 (centres unmarked) [Example 8, 5-(4-Methanesulfonylmethyl-phenyl)-2-{1-[(1-trifluoromethyl-cyclopropyl)methyl]-piperidin-4-yl}-2,3-dihydrofuro[2,3-c]pyridine]  0.035 µM
12. C[C@]1(C2CCN(CC3(C(F)(F)F)CC3)CC2)Cc2cc(-c3ccc(S(C)(=O)=O)cc3)ncc2O1 [Example 18]  0.027 µM
13. CC(C)(F)CN1CCC([C@@]2(C)Cc3cc(C4=CCN(S(C)(=O)=O)CC4)ncc3O2)CC1 [Example 16, (R)-2-[1-(2-Fluoro-2-methyl-propyl)-piperidin-4-yl]-5-(1-methanesulfonyl-1,2,3,6-tetrahydro-pyridin-4-yl)-2-methyl-2,3-dihydro-furo[2,3-c]pyridine]  0.025 µM
14. CS(=O)(=O)Cc1ccc(-c2cc3c(cn2)OC(C2CCN(CC4(C(F)(F)F)CC4)CC2)C3)c(F)c1 (centres unmarked) [Example 7, 5-(2-Fluoro-4-methanesulfonylmethyl-phenyl)-2-{1-[(1-trifluoromethyl-cyclopropyl)methyl]-piperidin-4-yl}-2,3-dihydrofuro[2,3-c]pyridine]  0.022 µM
15. CS(=O)(=O)N1CC=C(c2cc3c(cn2)OC(C2CCN(CC4(C(F)(F)F)CC4)CC2)C3)CC1 (racemic) [Example 6, 5-(1-Methanesulfonyl-1,2,3,6-tetrahydro-pyridin-4-yl)-2-{1-[(1-trifluoromethyl-cyclopropyl)methyl]-piperidin-4-yl}-2,3-dihydro-furo[2,3-c]pyridine]  0.021 µM
16. C[C@]1(C2CCN(CC3(C(F)(F)F)CC3)CC2)Cc2cc(C3=CCN(S(C)(=O)=O)CC3)ncc2O1 [Example 13, (R)-5-(1-Methanesulfonyl-1,2,3,6-tetrahydro-pyridin-4-yl)-2-methyl-2-{1-[(1-trifluoromethyl-cyclopropyl)methyl]-piperidin-4-yl}-2,3-dihydro-furo[2,3-c]pyridine]  0.005 µM
17. CS(=O)(=O)N1CC=C(c2cc3c(cn2)O[C@@H](C2CCN(CC4(C(F)(F)F)CC4)CC2)C3)CC1 [Example 14, (R)-5-(1-Methanesulfonyl-1,2,3,6-tetrahydro-pyridin-4-yl)-2-{1-[(1-trifluoromethyl-cyclopropyl)methyl]-piperidin-4-yl}-2,3-dihydro-furo[2,3-c]pyridine]  0.002 µM
